Usually inhibition in vivo stands for the share of the control response that was lost under treatment. Usually Ki stands for the dissociation constant of the complex between target and ligand, obtained from inhibition or displacement. A low value points to higher affinity.

From ChEMBL document CHEMBL1125524, “Adenosine A1 antagonists. 2. Structure-activity relationships on diuretic activities and protective effects against acute renal failure” (J Med Chem, 1992) come the findings set out here.

Assay [1] relates to Rattus norvegicus. Description: Percent inhibition of serum creatinine by the compound given as ratio of Cr value in treated to vehicle treated ones after intraperitoneal administration of 0.1 mg/kg of compound to rats(vehicle 3.92+/-0.23). It is filed as functional. The following applies: ip.
The test system of assay [2] is Rattus norvegicus. Put plainly: Urea nitrogen concentration measured after intraperitoneal administration of 1 mg/kg of compound to rats(vehicle 151.5+/-7.4). It is filed as functional.
Assay [3] has as its system Rattus norvegicus. Description: Serum creatinine concentration measured after intraperitoneal administration of 1 mg/kg of compound to rats(vehicle 4.82+/-0.17). In kind it is functional.
Assay [4] concerns Rattus norvegicus. Put plainly: Percent inhibition of serum creatinine by the compound given as ratio of Cr value in treated to vehicle treated ones after intraperitoneal administration of 1 mg/kg of compound to rats(vehicle 4.82+/-0.17). The following applies: ip. In kind it is functional.
In assay [5] the test system is Rattus norvegicus. Put plainly: Percent inhibition of serum creatinine by the compound given as ratio of Cr value in treated to vehicle treated ones after intraperitoneal administration of 0.01 mg/kg of compound to rats(vehicle 4.50+/-0.24). The conditions noted are these: ip. It is filed as functional.
Assay [6] has as its system Rattus norvegicus. Put plainly: Percent inhibition of Urea nitrogen by the compound given as ratio of UN value in treated to vehicle treated ones after intraperitoneal administration of 0.1 mg/kg of compound to rats(vehicle 141.3+/-8.3). It is filed as functional. The following applies: ip.
Assay [7] has as its system Rattus norvegicus. Description: Oral diuretic activity was measured after oral administration of 0.4 mg/kg to rats(control volume is 1.72+/-0.31). It is filed as functional, Urine.
Assay [8] concerns Rattus norvegicus. Description: Effect on urinary excretion potassium and sodium after oral administration of 0.4 mg/kg to rats(potassium and sodium excretion in control rat is 0.267+/-0.044). It is filed as functional, Urine.
Assay [9] deals with Rattus norvegicus. Put plainly: Urea nitrogen concentration measured after intraperitoneal administration of 0.1 mg/kg of compound to rats(vehicle 141.3+/-8.3). It is filed as functional.
Assay [10] concerns Rattus norvegicus. Description: Ratio of sodium ion/potassium ion concentration in treated rats to that in control rats, at a peroral dose of 0.4 mg/Kg. It is filed as functional.
For assay [11], the system named is Rattus norvegicus. Description: Serum creatinine concentration measured after intraperitoneal administration of 0.1 mg/kg of compound to rats(vehicle 3.92+/-0.23). It is filed as functional.
The subject of assay [12] is Rattus norvegicus. Description: Oral diuretic activity was measured after oral administration of 1.6 mg/kg to rats(control volume is 0.97+/-0.05). It is filed as functional, Urine.
Assay [13] deals with Rattus norvegicus. Put plainly: Urea nitrogen concentration measured after intraperitoneal administration of 0.01 mg/kg of compound to rats(vehicle 130.6+/-4.12). It is filed as functional.
Assay [14] concerns Rattus norvegicus. Put plainly: Percent inhibition of Urea nitrogen by the compound given as ratio of UN value in treated to vehicle treated ones after intraperitoneal administration of 0.01 mg/kg of compound to rats(vehicle 130.6+/-4.12). The conditions noted are these: ip. It is filed as functional.
Assay [15] relates to Rattus norvegicus. Description: Ratio of urinary excretion value (urinary volume) in treated rats to that in control rats, at a peroral dose of 0.4 mg/Kg. In kind it is functional, Urine.
In assay [16] the test system is Rattus norvegicus. Put plainly: Percent inhibition of Urea nitrogen by the compound given as ratio of UN value in treated to vehicle treated ones after intraperitoneal administration of 1 mg/kg of compound to rats(vehicle 151.5+/-7.4). It is filed as functional. The conditions noted are these: ip.
Assay [17] concerns Rattus norvegicus. Description: Effect on urinary excretion potassium and sodium after oral administration of 1.6 mg/kg to rats(potassium and sodium excretion in control rat is 0.169+/-0.012). In kind it is functional, Urine.
Assay [18] relates to Rattus norvegicus. Description: Serum creatinine concentration measured after intraperitoneal administration of 0.01 mg/kg of compound to rats(vehicle 4.50+/-0.24). It is filed as functional.
The target of a further assay is Adenosine A2 receptor (Rattus norvegicus, UniProt P29276+P30543).
Assay [19] concerns Rattus norvegicus. Description: Ratio of urinary excretion value (urinary volume) in treated rats to that in control rats, at a peroral dose of 1.6 mg/Kg. In kind it is functional, Urine.
For assay [20], the system named is Rattus norvegicus. Put plainly: Ratio of urinary excretion value (Na+ concentration) in treated rats to that in control rats, at a peroral dose of 0.4 mg/Kg. In kind it is functional, Urine.
Assay [21] concerns Rattus norvegicus. Put plainly: Ratio of urinary excretion value (Na+ concentration) in treated rats to that in control rats, at a peroral dose of 1.6 mg/Kg. In kind it is functional, Urine.
Assay [22] deals with Rattus norvegicus. Description: Ratio of sodium ion/potassium ion concentration in treated rats to that in control rats, at a peroral dose of 1.6 mg/Kg. It is filed as functional.
In assay [23] the test system is Rattus norvegicus. Put plainly: Ratio of urinary excretion value (urinary volume) in treated rats to that in control rats, at a peroral dose of 3.1 mg/Kg. In kind it is functional, Urine.
Another assay addresses T1, Adenosine receptor A1 (Cavia porcellus, UniProt P47745).
T1 sequence (P47745 whole entry): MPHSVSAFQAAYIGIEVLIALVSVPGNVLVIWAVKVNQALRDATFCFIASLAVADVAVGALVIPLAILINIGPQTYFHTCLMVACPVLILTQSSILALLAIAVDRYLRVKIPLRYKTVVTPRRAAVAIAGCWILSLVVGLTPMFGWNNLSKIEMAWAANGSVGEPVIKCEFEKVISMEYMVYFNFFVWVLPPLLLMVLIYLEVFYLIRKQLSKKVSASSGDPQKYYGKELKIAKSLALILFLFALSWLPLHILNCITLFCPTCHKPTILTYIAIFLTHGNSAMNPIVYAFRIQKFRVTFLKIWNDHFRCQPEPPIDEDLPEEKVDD

The subject of assay [24] is Rattus norvegicus. Put plainly: Percent inhibition of Urea nitrogen by the compound given as ratio of UN value in treated to vehicle treated ones after intraperitoneal administration of 10 mg/kg of compound to rats(vehicle 146.7+/-10.1). It is filed as functional. The conditions noted are these: ip.
Assay [25] relates to Rattus norvegicus. Description: Oral diuretic activity was measured after oral administration of 25 mg/kg to rats(control volume is 0.69+/-0.03). It is filed as functional, Urine.
Assay [26] has as its system Rattus norvegicus. Put plainly: Ratio of urinary excretion value (urinary volume) in treated rats to that in control rats, at a peroral dose of 25 mg/Kg. It is filed as functional, Urine.
For assay [27], the system named is Rattus norvegicus. Description: Urea nitrogen concentration measured after intraperitoneal administration of 1 mg/kg of compound to rats(vehicle 154.5+/-7). It is filed as functional.
In assay [28] the test system is Rattus norvegicus. Description: Effect on urinary excretion potassium and sodium after oral administration of 3.1 mg/kg to rats(potassium and sodium excretion in control rat is 0.227+/-0.027). It is filed as functional, Urine.
Assay [29] deals with Rattus norvegicus. Description: Percent inhibition of serum creatinine by the compound given as ratio of Cr value in treated to vehicle treated ones after intraperitoneal administration of 10 mg/kg of compound to rats(vehicle 4.26+/-0.39). It is filed as functional. The following applies: ip.
Assay [30] deals with Rattus norvegicus. Description: Ratio of sodium ion/potassium ion concentration in treated rats to that in control rats, at a peroral dose of 3.1 mg/Kg. In kind it is functional.
Assay [31] deals with Rattus norvegicus. Put plainly: Percent inhibition of Urea nitrogen by the compound given as ratio of UN value in treated to vehicle treated ones after intraperitoneal administration of 1 mg/kg of compound to rats(vehicle 154.5+/-7). It is filed as functional. The conditions noted are these: ip.
For assay [32], the system named is Rattus norvegicus. Description: Effect on urinary excretion potassium and sodium after oral administration of 1.6 mg/kg to rats(potassium and sodium excretion in control rat is 0.158+/-0.034). It is filed as functional, Urine.
The test system of assay [33] is Rattus norvegicus. Description: Urea nitrogen concentration measured after intraperitoneal administration of 10 mg/kg of compound to rats(vehicle 146.7+/-10.1). In kind it is functional.
Assay [34] has as its system Rattus norvegicus. Put plainly: Effect on urinary excretion potassium and sodium after oral administration of 25 mg/kg to rats(potassium and sodium excretion in control rat is 0.079+/-0.007). In kind it is functional, Urine.
In assay [35] the test system is Rattus norvegicus. Put plainly: Ratio of urinary excretion value (Na+ concentration) in treated rats to that in control rats, at a peroral dose of 3.1 mg/Kg. It is filed as functional, Urine.
For assay [36], the system named is Rattus norvegicus. Description: Oral diuretic activity was measured after oral administration of 1.6 mg/kg to rats(control volume is 1.12+/-0.33). In kind it is functional, Urine.
Assay [37] deals with Rattus norvegicus. Put plainly: Serum creatinine concentration measured after intraperitoneal administration of 10 mg/kg of compound to rats(vehicle 4.26+/-0.39). It is filed as functional.
For assay [38], the system named is Rattus norvegicus. Description: Oral diuretic activity was measured after oral administration of 3.1 mg/kg to rats(control volume is 1.18+/-0.11). In kind it is functional, Urine.
For assay [39], the system named is Rattus norvegicus. Description: Ratio of urinary excretion value (Na+ concentration) in treated rats to that in control rats, at a peroral dose of 25 mg/Kg. In kind it is functional, Urine.
Assay [40] deals with Rattus norvegicus. Put plainly: Serum creatinine concentration measured after intraperitoneal administration of 1 mg/kg of compound to rats(vehicle 4.91+/-0.10). In kind it is functional.
For assay [41], the system named is Rattus norvegicus. Put plainly: Percent inhibition of serum creatinine by the compound given as ratio of Cr value in treated to vehicle treated ones after intraperitoneal administration of 1 mg/kg of compound to rats(vehicle 4.91+/-0.10). The following applies: ip. In kind it is functional.

Description for Adenosine receptor A1: Binding affinity against adenosine A1 receptor in guinea pig forebrain membranes using N6-[3H]cyclohexyladenosine as radioligand

`CC(C)Cn1c(=O)n(C)c(=O)c2[nH]c(C34CC5CC(CC3C5)C4)nc21`: the results for the inhibition in vivo at 0.1 mg/kg with Rattus norvegicus [1] and in the assay on Rattus norvegicus [6] were 48% and 50%, respectively. For the same molecule, the UN turned out to be 74 mg/dL in the assay with Rattus norvegicus [2], 70.9 mg/dL in the assay on Rattus norvegicus [9] and 115.5 mg/dL in the assay on Rattus norvegicus [13]. Further, the Cr stood at 2.76 mg/dL with Rattus norvegicus [3], 2.04 mg/dL in the assay on Rattus norvegicus [11] and 3.38 mg/dL in the assay on Rattus norvegicus [18]. Further, the inhibition in vivo at 1 mg/kg worked out at 42% in the assay with Rattus norvegicus [4] and 51% in the assay with Rattus norvegicus [16]. For the same molecule, the inhibition in vivo at 0.01 mg/kg came to 25% with Rattus norvegicus [5] and 12% with Rattus norvegicus [14]. The figures for the Urine volume with Rattus norvegicus [7] and in the assay with Rattus norvegicus [12] were 2.41 ml 6hr-1 100g-1 and 2.43 ml 6hr-1 100g-1, respectively. Further, the Na in the assay with Rattus norvegicus [8] was 0.367 m equiv 6hr-1 100g-1; in the assay with Rattus norvegicus [17] it was 0.409 m equiv 6hr-1 100g-1. Also, the “Na+/K+” value in the assay with Rattus norvegicus [10] is on record as 1.37; in the assay on Rattus norvegicus [22], 1.73. Also, the T/C in the assay with Rattus norvegicus [15] is given as 1.4; with Rattus norvegicus [19], 2.51; in the assay on Rattus norvegicus [20], 1.38; with Rattus norvegicus [21] it was 2.43. Further, the inhibitory constant (Ki) on Adenosine A2 receptor was 850 nM.
Turning to `CCCn1c(=O)c2nc(C34CC5CC(CC(C5)C3)C4)[nH]c2n(CCC)c1=O`, the T/C amounted to 1.42 in the assay with Rattus norvegicus [23]; 2.29 with Rattus norvegicus [26]; 1.32 with Rattus norvegicus [35]; 1.24 in the assay with Rattus norvegicus [19]; 2.86 in the assay on Rattus norvegicus [39]; 1.44 with Rattus norvegicus [21]. This molecule gave a Ki on Adenosine receptor A1 of 13 nM. The inhibition in vivo at 10 mg/kg turned out to be 47% in the assay with Rattus norvegicus [24] and 55% in the assay on Rattus norvegicus [29]. Also, the Urine volume was 1.58 ml 6hr-1 100g-1 in the assay on Rattus norvegicus [25], 1.39 ml 6hr-1 100g-1 in the assay on Rattus norvegicus [36] and 1.67 ml 6hr-1 100g-1 in the assay with Rattus norvegicus [38]. In addition, the UN is 118.8 mg/dL in the assay with Rattus norvegicus [27] and 77.5 mg/dL with Rattus norvegicus [33]. For the same molecule, the results for the Na in the assay on Rattus norvegicus [28], in the assay on Rattus norvegicus [32] and in the assay with Rattus norvegicus [34] were 0.299 m equiv 6hr-1 100g-1, 0.227 m equiv 6hr-1 100g-1 and 0.226 m equiv 6hr-1 100g-1, respectively. In addition, the “Na+/K+” value in the assay on Rattus norvegicus [30] is recorded as 1.23; in the assay with Rattus norvegicus [22], 1.22. Moreover, the results for the inhibition in vivo at 1 mg/kg in the assay with Rattus norvegicus [31] and in the assay with Rattus norvegicus [41] were 25% and 30%, respectively. Besides, the Cr is 1.91 mg/dL with Rattus norvegicus [37] and 3.45 mg/dL in the assay with Rattus norvegicus [40].
